Counter-ions that a name gives are not always drawn.

This data set in a line: Self-assembly of CAD with DOPE (50:50) into vesicles, ethanol dilution or lipid film hydration. It counts as physicochemical. The note with it: CAD:DOPE 50:50. As to the method:
Preparation of CAD-DOPE nanoparticles. […] The lipids DOTAP (1,2-dioleoyl-3-trimethylammonium-propane) and DOPE (1,2-dioleoyl-sn-glycero-3-phosphoethanolamine) were purchased from Avanti Polar Lipids (Alabaster, USA).
For the ethanol dilution (ED) method, CADs (10 mg/ml) and DOPE (25 mg/ml) were separately dissolved in absolute ethanol. […] For the lipid film hydration method CAD (10 mg/ml) and DOPE (25 mg/ml) were dissolved in chloroform (50:50 mol ratio) and transferred to a brown glass vial, followed by chloroform evaporation under nitrogen flow. […] The classically used cationic DOTAP-DOPE liposomes (50:50 mol ratio) were likewise prepared via lipid film hydration, as previously reported in literature and diluted in HEPES buffer (pH 7.4, 20 mM) to obtain a final lipid concentration of 3.9 mM. Hydrodynamic diameter, polydispersity index (PDI) and zeta-potential of all formulations were determined via dynamic light scattering (DLS) (Zetasizer Nano, Malvern Instruments, Worcestershire, United Kingdom).
As to `CN1CCC(=C2c3ccccc3CC(=O)c3sccc32)CC1` [Ketotifen], the “vesicle formation with DOPE” value is listed as “did not self-assemble with DOPE”. For the compound `CN(C)CCCN1c2ccccc2CCc2ccccc21` [Imipramine hydrochloride], the “vesicle formation with DOPE” value is “successful vesicle formation”. The result for `Clc1ccc2c(c1)CCc1cccnc1C2=C1CCNCC1` [Desloratadine] reads “successful vesicle formation”.

For the compound `CNCCCN1c2ccccc2CCc2ccccc21` [Desipramine hydrochloride], the “vesicle formation with DOPE” value is “successful vesicle formation”.

Consider `NC1=NCC2c3ccccc3Cc3ccccc3N12` (stereo not drawn) [Epinastine], for which the “vesicle formation with DOPE” value is “did not self-assemble with DOPE”. For the compound `CN(C)CCC=C1c2ccccc2CCc2ccccc21` [Amitriptyline hydrochloride], the “vesicle formation with DOPE” value was “successful vesicle formation”.

For the origin of these results see US20250381149A1, “CATIONIC AMPHIPHILIC COMPOUND-BASED NANOPARTICLE COMPOSITIONS” (Universiteit Gent, priority 2022, published 2025).
